Reference: ChEMBL document CHEMBL3593172, “4-(N-Phenyl-N'-substituted benzenesulfonyl)-6-(4-hydroxyphenyl)quinolines as inhibitors of mammalian target of rapamycin” (Bioorg Med Chem, 2015)

system: HepG2; assay: Cytotoxicity against human HepG2 cells assessed as growth inhibition at 10 uM after 24 to 48 hrs by MTT assay relative to control; type: functional; conditions: read-out: GI

| SMILES | inhibition of growth at 10 µM [%] |
| --- | --- |
| Cc1c(C)c(C)c(S(=O)(=O)N(c2ccccc2)c2ccnc3ccc(-c4ccc(O)cc4)cc23)c(C)c1C | 1 |
| O=[N+]([O-])c1ccc(S(=O)(=O)N(c2ccccc2)c2ccnc3ccc(-c4ccc(O)cc4)cc23)cc1 | 8 |
| Cc1ccc(S(=O)(=O)N(c2ccccc2)c2ccnc3ccc(-c4ccc(O)cc4)cc23)cc1 | 13 |

biological target: Serine/threonine-protein kinase mTOR (Homo sapiens) (UniProt P42345); assay: Inhibition of mTOR (unknown origin) assessed as p70S6K phosphorylation after 30 mins by ELISA; conditions: not given

| SMILES | inhibition [%] |
| --- | --- |
| COC[C@H]1OC(=O)c2coc3c2[C@@]1(C)C1=C(C3=O)[C@@H]2CCC(=O)[C@@]2(C)C[C@H]1OC(C)=O | 100 |

system: HL-60; assay: cells; conditions: Homo sapiens, HL-60, 48 h
Description: Cytotoxicity against human HL60 cells assessed as inhibition of cell proliferation after 48 hrs by MTT assay

| SMILES | IC50 [µM] |
| --- | --- |
| Cc1c(C)c(C)c(S(=O)(=O)N(c2ccccc2)c2ccnc3ccc(-c4ccc(O)cc4)cc23)c(C)c1C | > 100 |
| O=[N+]([O-])c1ccc(S(=O)(=O)N(c2ccccc2)c2ccnc3ccc(-c4ccc(O)cc4)cc23)cc1 | < 10 |
| Cc1ccc(S(=O)(=O)N(c2ccccc2)c2ccnc3ccc(-c4ccc(O)cc4)cc23)cc1 | < 10 |

system: HCT-116; assay: Cytotoxicity against human HCT116 cells assessed as growth inhibition at 100 uM after 24 to 48 hrs by MTT assay relative to control; type: functional; conditions: read-out: GI

| SMILES | inhibition of growth at 100 µM [%] |
| --- | --- |
| Cc1c(C)c(C)c(S(=O)(=O)N(c2ccccc2)c2ccnc3ccc(-c4ccc(O)cc4)cc23)c(C)c1C | 24 |
| O=[N+]([O-])c1ccc(S(=O)(=O)N(c2ccccc2)c2ccnc3ccc(-c4ccc(O)cc4)cc23)cc1 | 58 |
| Cc1ccc(S(=O)(=O)N(c2ccccc2)c2ccnc3ccc(-c4ccc(O)cc4)cc23)cc1 | 82 |

system: HepG2; assay: Cytotoxicity against human HepG2 cells assessed as growth inhibition at 30 uM after 24 to 48 hrs by MTT assay relative to control; type: functional; conditions: read-out: GI

| SMILES | inhibition of growth at 30 µM [%] |
| --- | --- |
| Cc1c(C)c(C)c(S(=O)(=O)N(c2ccccc2)c2ccnc3ccc(-c4ccc(O)cc4)cc23)c(C)c1C | 2 |
| O=[N+]([O-])c1ccc(S(=O)(=O)N(c2ccccc2)c2ccnc3ccc(-c4ccc(O)cc4)cc23)cc1 | 76 |
| Cc1ccc(S(=O)(=O)N(c2ccccc2)c2ccnc3ccc(-c4ccc(O)cc4)cc23)cc1 | 90 |

system: HCT-116; assay: Cytotoxicity against human HCT116 cells assessed as growth inhibition at 30 uM after 24 to 48 hrs by MTT assay relative to control; type: functional; conditions: read-out: GI

| SMILES | inhibition of growth at 30 µM [%] |
| --- | --- |
| Cc1c(C)c(C)c(S(=O)(=O)N(c2ccccc2)c2ccnc3ccc(-c4ccc(O)cc4)cc23)c(C)c1C | 15 |
| O=[N+]([O-])c1ccc(S(=O)(=O)N(c2ccccc2)c2ccnc3ccc(-c4ccc(O)cc4)cc23)cc1 | 4 |
| Cc1ccc(S(=O)(=O)N(c2ccccc2)c2ccnc3ccc(-c4ccc(O)cc4)cc23)cc1 | 34 |

system: PC-3; assay: Cytotoxicity against human PC3 cells assessed as growth inhibition at 10 uM after 24 to 48 hrs by MTT assay relative to control; type: functional; conditions: read-out: GI

| SMILES | inhibition of growth at 10 µM [%] |
| --- | --- |
| Cc1c(C)c(C)c(S(=O)(=O)N(c2ccccc2)c2ccnc3ccc(-c4ccc(O)cc4)cc23)c(C)c1C | 12 |
| O=[N+]([O-])c1ccc(S(=O)(=O)N(c2ccccc2)c2ccnc3ccc(-c4ccc(O)cc4)cc23)cc1 | 4 |
| Cc1ccc(S(=O)(=O)N(c2ccccc2)c2ccnc3ccc(-c4ccc(O)cc4)cc23)cc1 | 20 |

system: PC-3; assay: Cytotoxicity against human PC3 cells assessed as growth inhibition at 100 uM after 24 to 48 hrs by MTT assay relative to control; type: functional; conditions: read-out: GI

| SMILES | inhibition of growth at 100 µM [%] |
| --- | --- |
| Cc1c(C)c(C)c(S(=O)(=O)N(c2ccccc2)c2ccnc3ccc(-c4ccc(O)cc4)cc23)c(C)c1C | 15 |
| O=[N+]([O-])c1ccc(S(=O)(=O)N(c2ccccc2)c2ccnc3ccc(-c4ccc(O)cc4)cc23)cc1 | 47 |
| Cc1ccc(S(=O)(=O)N(c2ccccc2)c2ccnc3ccc(-c4ccc(O)cc4)cc23)cc1 | 72 |

system: not listed separately; assay: cells; conditions: Homo sapiens, MIA PaCa-2, 48 h
Description: Cytotoxicity against human MIAPaCa2 cells assessed as inhibition of cell proliferation after 48 hrs by MTT assay

| SMILES | IC50 [µM] |
| --- | --- |
| Cc1c(C)c(C)c(S(=O)(=O)N(c2ccccc2)c2ccnc3ccc(-c4ccc(O)cc4)cc23)c(C)c1C | > 100 |
| O=[N+]([O-])c1ccc(S(=O)(=O)N(c2ccccc2)c2ccnc3ccc(-c4ccc(O)cc4)cc23)cc1 | 25 |
| Cc1ccc(S(=O)(=O)N(c2ccccc2)c2ccnc3ccc(-c4ccc(O)cc4)cc23)cc1 | < 10 |

system: HL-60; assay: Cytotoxicity against human HL60 cells assessed as growth inhibition at 100 uM after 24 to 48 hrs by MTT assay relative to control; type: functional; conditions: read-out: GI

| SMILES | inhibition of growth at 100 µM [%] |
| --- | --- |
| Cc1c(C)c(C)c(S(=O)(=O)N(c2ccccc2)c2ccnc3ccc(-c4ccc(O)cc4)cc23)c(C)c1C | 15 |
| O=[N+]([O-])c1ccc(S(=O)(=O)N(c2ccccc2)c2ccnc3ccc(-c4ccc(O)cc4)cc23)cc1 | 89 |
| Cc1ccc(S(=O)(=O)N(c2ccccc2)c2ccnc3ccc(-c4ccc(O)cc4)cc23)cc1 | 92 |

system: HL-60; assay: Cytotoxicity against human HL60 cells assessed as growth inhibition at 30 uM after 24 to 48 hrs by MTT assay relative to control; type: functional; conditions: read-out: GI

| SMILES | inhibition of growth at 30 µM [%] |
| --- | --- |
| Cc1c(C)c(C)c(S(=O)(=O)N(c2ccccc2)c2ccnc3ccc(-c4ccc(O)cc4)cc23)c(C)c1C | 8 |
| O=[N+]([O-])c1ccc(S(=O)(=O)N(c2ccccc2)c2ccnc3ccc(-c4ccc(O)cc4)cc23)cc1 | 87 |
| Cc1ccc(S(=O)(=O)N(c2ccccc2)c2ccnc3ccc(-c4ccc(O)cc4)cc23)cc1 | 90 |

system: HL-60; assay: Cytotoxicity against human HL60 cells assessed as growth inhibition at 10 uM after 24 to 48 hrs by MTT assay relative to control; type: functional; conditions: read-out: GI

| SMILES | inhibition of growth at 10 µM [%] |
| --- | --- |
| Cc1c(C)c(C)c(S(=O)(=O)N(c2ccccc2)c2ccnc3ccc(-c4ccc(O)cc4)cc23)c(C)c1C | 5 |
| O=[N+]([O-])c1ccc(S(=O)(=O)N(c2ccccc2)c2ccnc3ccc(-c4ccc(O)cc4)cc23)cc1 | 86 |
| Cc1ccc(S(=O)(=O)N(c2ccccc2)c2ccnc3ccc(-c4ccc(O)cc4)cc23)cc1 | 78 |

system: PC-3; assay: cells; conditions: Homo sapiens, PC-3, 48 h
Description: Cytotoxicity against human PC3 cells assessed as inhibition of cell proliferation after 48 hrs by MTT assay

| SMILES | IC50 [µM] |
| --- | --- |
| Cc1c(C)c(C)c(S(=O)(=O)N(c2ccccc2)c2ccnc3ccc(-c4ccc(O)cc4)cc23)c(C)c1C | > 100 |
| O=[N+]([O-])c1ccc(S(=O)(=O)N(c2ccccc2)c2ccnc3ccc(-c4ccc(O)cc4)cc23)cc1 | > 100 |
| Cc1ccc(S(=O)(=O)N(c2ccccc2)c2ccnc3ccc(-c4ccc(O)cc4)cc23)cc1 | 45 |

system: not listed separately; assay: Cytotoxicity against human MIAPaCa2 cells assessed as growth inhibition at 30 uM after 24 to 48 hrs by MTT assay relative to control; type: functional; conditions: MIA PaCa-2, read-out: GI

| SMILES | inhibition of growth at 30 µM [%] |
| --- | --- |
| Cc1c(C)c(C)c(S(=O)(=O)N(c2ccccc2)c2ccnc3ccc(-c4ccc(O)cc4)cc23)c(C)c1C | 17 |
| O=[N+]([O-])c1ccc(S(=O)(=O)N(c2ccccc2)c2ccnc3ccc(-c4ccc(O)cc4)cc23)cc1 | 59 |
| Cc1ccc(S(=O)(=O)N(c2ccccc2)c2ccnc3ccc(-c4ccc(O)cc4)cc23)cc1 | 88 |

system: HepG2; assay: cells; conditions: Homo sapiens, HepG2, 48 h
Description: Cytotoxicity against human HepG2 cells assessed as inhibition of cell proliferation after 48 hrs by MTT assay

| SMILES | IC50 [µM] |
| --- | --- |
| Cc1c(C)c(C)c(S(=O)(=O)N(c2ccccc2)c2ccnc3ccc(-c4ccc(O)cc4)cc23)c(C)c1C | > 100 |
| O=[N+]([O-])c1ccc(S(=O)(=O)N(c2ccccc2)c2ccnc3ccc(-c4ccc(O)cc4)cc23)cc1 | 22 |
| Cc1ccc(S(=O)(=O)N(c2ccccc2)c2ccnc3ccc(-c4ccc(O)cc4)cc23)cc1 | 19 |

system: HepG2; assay: Cytotoxicity against human HepG2 cells assessed as growth inhibition at 100 uM after 24 to 48 hrs by MTT assay relative to control; type: functional; conditions: read-out: GI

| SMILES | inhibition of growth at 100 µM [%] |
| --- | --- |
| Cc1c(C)c(C)c(S(=O)(=O)N(c2ccccc2)c2ccnc3ccc(-c4ccc(O)cc4)cc23)c(C)c1C | 10 |
| O=[N+]([O-])c1ccc(S(=O)(=O)N(c2ccccc2)c2ccnc3ccc(-c4ccc(O)cc4)cc23)cc1 | 84 |
| Cc1ccc(S(=O)(=O)N(c2ccccc2)c2ccnc3ccc(-c4ccc(O)cc4)cc23)cc1 | 97 |

system: not listed separately; assay: Cytotoxicity against human MIAPaCa2 cells assessed as growth inhibition at 100 uM after 24 to 48 hrs by MTT assay relative to control; type: functional; conditions: MIA PaCa-2, read-out: GI

| SMILES | inhibition of growth at 100 µM [%] |
| --- | --- |
| Cc1c(C)c(C)c(S(=O)(=O)N(c2ccccc2)c2ccnc3ccc(-c4ccc(O)cc4)cc23)c(C)c1C | 22 |
| O=[N+]([O-])c1ccc(S(=O)(=O)N(c2ccccc2)c2ccnc3ccc(-c4ccc(O)cc4)cc23)cc1 | 81 |
| Cc1ccc(S(=O)(=O)N(c2ccccc2)c2ccnc3ccc(-c4ccc(O)cc4)cc23)cc1 | 89 |

system: PC-3; assay: Cytotoxicity against human PC3 cells assessed as growth inhibition at 30 uM after 24 to 48 hrs by MTT assay relative to control; type: functional; conditions: read-out: GI

| SMILES | inhibition of growth at 30 µM [%] |
| --- | --- |
| Cc1c(C)c(C)c(S(=O)(=O)N(c2ccccc2)c2ccnc3ccc(-c4ccc(O)cc4)cc23)c(C)c1C | 14 |
| O=[N+]([O-])c1ccc(S(=O)(=O)N(c2ccccc2)c2ccnc3ccc(-c4ccc(O)cc4)cc23)cc1 | 30 |
| Cc1ccc(S(=O)(=O)N(c2ccccc2)c2ccnc3ccc(-c4ccc(O)cc4)cc23)cc1 | 43 |

system: HCT-116; assay: cells; conditions: Homo sapiens, HCT-116, 48 h
Description: Cytotoxicity against human HCT116 cells assessed as inhibition of cell proliferation after 48 hrs by MTT assay

| SMILES | IC50 [µM] |
| --- | --- |
| Cc1c(C)c(C)c(S(=O)(=O)N(c2ccccc2)c2ccnc3ccc(-c4ccc(O)cc4)cc23)c(C)c1C | > 100 |
| O=[N+]([O-])c1ccc(S(=O)(=O)N(c2ccccc2)c2ccnc3ccc(-c4ccc(O)cc4)cc23)cc1 | 90 |
| Cc1ccc(S(=O)(=O)N(c2ccccc2)c2ccnc3ccc(-c4ccc(O)cc4)cc23)cc1 | 53 |

system: HCT-116; assay: Cytotoxicity against human HCT116 cells assessed as growth inhibition at 10 uM after 24 to 48 hrs by MTT assay relative to control; type: functional; conditions: read-out: GI

| SMILES | inhibition of growth at 10 µM [%] |
| --- | --- |
| Cc1c(C)c(C)c(S(=O)(=O)N(c2ccccc2)c2ccnc3ccc(-c4ccc(O)cc4)cc23)c(C)c1C | 14 |
| O=[N+]([O-])c1ccc(S(=O)(=O)N(c2ccccc2)c2ccnc3ccc(-c4ccc(O)cc4)cc23)cc1 | 2 |
| Cc1ccc(S(=O)(=O)N(c2ccccc2)c2ccnc3ccc(-c4ccc(O)cc4)cc23)cc1 | 21 |

system: not listed separately; assay: Cytotoxicity against human MIAPaCa2 cells assessed as growth inhibition at 10 uM after 24 to 48 hrs by MTT assay relative to control; type: functional; conditions: MIA PaCa-2, read-out: GI

| SMILES | inhibition of growth at 10 µM [%] |
| --- | --- |
| Cc1c(C)c(C)c(S(=O)(=O)N(c2ccccc2)c2ccnc3ccc(-c4ccc(O)cc4)cc23)c(C)c1C | 16 |
| O=[N+]([O-])c1ccc(S(=O)(=O)N(c2ccccc2)c2ccnc3ccc(-c4ccc(O)cc4)cc23)cc1 | 21 |
| Cc1ccc(S(=O)(=O)N(c2ccccc2)c2ccnc3ccc(-c4ccc(O)cc4)cc23)cc1 | 80 |
